Experimental data as given in patent US5464848A, “1,2,4-oxadiazolyl-phenoxyalkylisoxazoles and their use as antiviral agents” (Sterling Winthrop Inc., priority 1993, dated 1995).
≈ marks a conversion by molar mass, not a printed value.

Assays:
HRV-89 = test: Inhibition of virus-induced CPE in HeLa cells (MIC), HRV-89; type: cell-based, human rhinovirus; conditions: Rhinovirus A, HRV89, 72 h, 3 day incubation at 33° C.
Method: (§1) They are useful in inhibiting virus replication in vitro and are primarily active against picornaviruses, including enteroviruses, echovirus and coxsackie virus, especially rhinoviruses. […] The test procedure used was as follows: The MIC values were determined by an automated tissue culture infectious dose 50% (TCID-50) assay. HeLa cells in monoloyers in 96-well cluster plates were infected with a dilution of virus which had been shown empirically to produce 80% to 100% cytopathic effect (CPE) in 3 days in the absence of drug. The compound to be tested was serially diluted through 10, 2-fold cycles and added to the infected cells. After a 3 day incubation at 33° C. and 2.5% carbon dioxide, the cells were fixed with a 5% solution of glutaraldehyde followed by staining with a 0.25% solution of crystal violet in water. The plates were then rinsed, dried, and the amount of stain remaining in the well (a measure of intact cells) was quantitated with an optical density reader. The MIC was determined to be the concentration of compound which protected 50% of the cells from virus-induced CPE relative to an untreated virus control. […]

coxsackievirus B3 = test: Oral efficacy against coxsackievirus B3 in mice; type: in vivo, adult male BALB/c mice
coxsackievirus A9 [1] = test: Oral efficacy against coxsackievirus A9 in suckling ICR mice, daily for five days; type: in vivo, mice (suckling ICR pups)
HRV-22 = test: Inhibition of virus-induced CPE in HeLa cells (MIC), HRV-22; type: cell-based; conditions: Human rhinovirus sp., HRV22, 72 h, 3 day incubation at 33° C.
Method: as §1

coxsackievirus A9 [2] = test: Oral efficacy against coxsackievirus A9 in suckling mice, administered once; type: in vivo; conditions: Enterovirus B, 60 h, once 2.5 days postinfection, read-out: 50% protective dose
Method: In another study of the oral efficacy of Example 1e against a coxsackievirus A9 infection in suckling mice, in which the compound was administered once 2.5 days postinfection, the 50% protective dose was determined to be 93 mg/kg per day.

HRV-21 = test: Inhibition of virus-induced CPE in HeLa cells (MIC), HRV-21; type: cell-based; conditions: Human rhinovirus sp., HRV21, 72 h, 3 day incubation at 33° C.
Method: as §1

HRV-2 = test: Inhibition of virus-induced CPE in HeLa cells, automated TCID-50 assay (MIC), HRV-2; type: cell-based, human rhinovirus; conditions: Rhinovirus A, HRV2, 72 h, 3 day incubation at 33° C.
Method: as §1

[3] = tested on: human rhinovirus (HRV) serotypes, panel T; test: MIC50/MIC80 over panel T of fifteen human rhinovirus serotypes (HeLa cell CPE); type: cell-based
Method: (§2) They are useful in inhibiting virus replication in vitro and are primarily active against picornaviruses, including enteroviruses, echovirus and coxsackie virus, especially rhinoviruses. […] The test procedure used was as follows: The MIC values were determined by an automated tissue culture infectious dose 50% (TCID-50) assay. HeLa cells in monoloyers in 96-well cluster plates were infected with a dilution of virus which had been shown empirically to produce 80% to 100% cytopathic effect (CPE) in 3 days in the absence of drug. The compound to be tested was serially diluted through 10, 2-fold cycles and added to the infected cells. After a 3 day incubation at 33° C. and 2.5% carbon dioxide, the cells were fixed with a 5% solution of glutaraldehyde followed by staining with a 0.25% solution of crystal violet in water. The plates were then rinsed, dried, and the amount of stain remaining in the well (a measure of intact cells) was quantitated with an optical density reader. The MIC was determined to be the concentration of compound which protected 50% of the cells from virus-induced CPE relative to an untreated virus control.
In the above test procedures, representative compounds of formula I were tested against some the serotypes from either a panel of fifteen human rhinovirus (HRV) serotypes, (noted in the table as panel T) namely, HRV-2, -14, -1A, -1B, -6, -21, -22, -15, -25, -30, -50, -67, -89, -86 and -41 or against some of the serotypes from a panel of 10 human rhinovirus serotypes namely HRV-3, -4, -5, -9, -16, -18, -38, -66, -75 and -61, (noted in the table as panel B) and the MIC value, expressed in micrograms per milliliter ([…]), for each rhinovirus serotype was determined for each virus, example 1e is given as an example of the data. Then MIC50 and MIC80 values, which are the minimum concentrations of the compound required to inhibit 50% and 80%, respectively, of the tested serotypes were determined.
The following Table gives the test results for representative compounds of the invention. The panel of viruses used in the test appears before the MIC80 and MIC50 figure and the number of serotypes which the compound is tested against (N) is indicated after the MIC80 and MIC50 figure.

HRV-1B = test: Inhibition of virus-induced CPE in HeLa cells (MIC), HRV-1B; type: cell-based, human rhinovirus; conditions: Rhinovirus A, HRV1B, 72 h, 3 day incubation at 33° C.
Method: as §1

coxsackievirus A21 = test: Oral efficacy against coxsackievirus A21 in weanling ICR mice; type: in vivo; conditions: for % Alive at Day 17: oral
HRV-15 = test: Inhibition of virus-induced CPE in HeLa cells (MIC), HRV-15; type: cell-based; conditions: Human rhinovirus sp., HRV15, 72 h, 3 day incubation at 33° C.
Method: as §1

HRV-14 = test: Inhibition of virus-induced CPE in HeLa cells (MIC), HRV-14; type: cell-based, human rhinovirus; conditions: Rhinovirus B, HRV14, 72 h, 3 day incubation at 33° C.
Method: as §1

[4] = tested on: 15 most commonly isolated nonpolio enteroviruses; test: MIC for the 15 most commonly isolated nonpolio enteroviruses; type: cell-based; conditions: 15 nonpolio enteroviruses
Method: as §2
Using the method described above, Example 1e was tested against other viruses. […]

HRV-1A = test: Inhibition of virus-induced CPE in HeLa cells (MIC), HRV-1A; type: cell-based, human rhinovirus; conditions: Rhinovirus A, HRV1A, 72 h, 3 day incubation at 33° C.
Method: as §1

HRV-67 = test: Inhibition of virus-induced CPE in HeLa cells (MIC), HRV-67; type: cell-based; conditions: Human rhinovirus sp., HRV67, 72 h, 3 day incubation at 33° C.
Method: as §1

HRV-25 = test: Inhibition of virus-induced CPE in HeLa cells (MIC), HRV-25; type: cell-based; conditions: Human rhinovirus sp., HRV25, 72 h, 3 day incubation at 33° C.
Method: as §1

HRV-86 = test: Inhibition of virus-induced CPE in HeLa cells (MIC), HRV-86; type: cell-based; conditions: Human rhinovirus sp., HRV86, 72 h, 3 day incubation at 33° C.
Method: as §1

HRV-30 = test: Inhibition of virus-induced CPE in HeLa cells (MIC), HRV-30; type: cell-based; conditions: Human rhinovirus sp., HRV30, 72 h, 3 day incubation at 33° C.
Method: as §1

HRV-50 = test: Inhibition of virus-induced CPE in HeLa cells (MIC), HRV-50; type: cell-based; conditions: Human rhinovirus sp., HRV50, 72 h, 3 day incubation at 33° C.
Method: as §1

HRV-41 = test: Inhibition of virus-induced CPE in HeLa cells (MIC), HRV-41; type: cell-based; conditions: Human rhinovirus sp., HRV41, 72 h, 3 day incubation at 33° C.
Method: as §1

For Cc1cc(CCCOc2c(C)cc(-c3noc(C(F)(F)F)n3)cc2C)on1 [Example 1e, 5-{3-[2,6--Dimethyl-4-(5-trifluoromethyl-1,2,4-oxadiazol-3-yl)phenoxy]propyl}-3-methylisoxazole], the MIC (HRV-89) was 0.015 µg/mL (≈ 0.0393 µM), the “% Alive at Day 17” value (coxsackievirus B3; 2 mg/kg per day, oral) was 8% and the “% Alive at Day 17” value (coxsackievirus B3; 20 mg/kg per day, oral) was 67%. For the same compound, the “% Alive at Day 17” value (coxsackievirus B3; 200 mg/kg per day, oral) was 92%, the ED50 (coxsackievirus B3; Enterovirus B, B3, po, coxsackievirus B3, adult male mice, oral, Day 1 to Day 5, read-out: 50% protective dose (PD50)) was 12 mg/kg and the “protection of infected mice, oral” value (coxsackievirus B3; coxsackievirus B3) was “orally effective in protecting mice”. For the same compound, the “efficacy in severe disseminated enterovirus infection model” value (coxsackievirus B3; coxsackievirus B3 infection in mice) was “has shown efficacy in this stringent model”, the “% Nonparalyzed at Day 13” value (coxsackievirus A9 [1]; 0.2 mg/kg per day, oral) was 7% and the “% Nonparalyzed at Day 13” value (coxsackievirus A9 [1]; 2.0 mg/kg per day, oral) was 10%. For the same compound, the “% Nonparalyzed at Day 13” value (coxsackievirus A9 [1]; 20 mg/kg per day, oral) was 10%, the “% Nonparalyzed at Day 13” value (coxsackievirus A9 [1]; 200 mg/kg per day, oral) was 87% and the ED50 (coxsackievirus A9 [1]; Enterovirus B, A9, po, coxsackievirus A9, suckling mice, oral, daily for five days beginning 2.5 days postinfection, read-out: 50% protective dose (PD50)) was 88 mg/kg. For the same compound, the “protection of infected mice, oral” value (coxsackievirus A9 [1]; coxsackievirus A9) was “orally effective in protecting mice”, the MIC (HRV-22) was 0.011 µg/mL (≈ 0.0288 µM) and the ED50 (coxsackievirus A9 [2]) was 93 mg/kg. For the same compound, the MIC (HRV-21) was 0.015 µg/mL (≈ 0.0393 µM), the MIC (HRV-2) was 0.027 µg/mL (≈ 0.0708 µM) and the MIC50 ([3]; Human rhinovirus sp., 72 h, minimum concentration required to inhibit 50% of the tested serotypes) was 0.0415 µg/mL (≈ 0.109 µM). The MIC80 ([3]; minimum concentration required to inhibit 80% of the tested serotypes) was 0.119 µg/mL (≈ 0.312 µM), the MIC (HRV-1B) was 0.054 µg/mL (≈ 0.142 µM) and the “% Alive at Day 17” value (coxsackievirus A21; 9.4 mg/kg per day) was 13%. For the same compound, the “% Alive at Day 17” value (coxsackievirus A21; 18.8 mg/kg per day) was 40%, the “% Alive at Day 17” value (coxsackievirus A21; 37.5 mg/kg per day) was 75% and the “% Alive at Day 17” value (coxsackievirus A21; 75 mg/kg per day) was 100%. The ED50 (coxsackievirus A21; Enterovirus C, A21, po, read-out: 50% protective dose (PD50)) was 26 mg/kg, the “protection of infected mice, oral” value (coxsackievirus A21; coxsackievirus A21) was “orally effective in protecting mice” and the MIC (HRV-15) was 0.147 µg/mL (≈ 0.385 µM). For the same compound, the MIC (HRV-14) was 0.022 µg/mL (≈ 0.0577 µM), the “overall MIC80” value [4] was 0.05 µM and the MIC (HRV-1A) was 0.119 µg/mL (≈ 0.312 µM). For the same compound, the MIC (HRV-67) was 0.07 µg/mL (≈ 0.184 µM), the MIC (HRV-25) was 0.036 µg/mL (≈ 0.0944 µM) and the MIC (HRV-86) was 0.029 µg/mL (≈ 0.076 µM). It also gave an MIC (HRV-30) of 0.047 µg/mL (≈ 0.123 µM), an MIC (HRV-50) of 0.154 µg/mL (≈ 0.404 µM) and an MIC (HRV-41) of 0.338 µg/mL (≈ 0.886 µM).
